Test results from ChEMBL document CHEMBL1140139, “A beta-fluoroamine inhibitor of purine nucleoside phosphorylase” (J Med Chem, 2008).
pKi: −log10 of the molar value.

What was measured:
[1] = biological target: T1, Purine nucleoside phosphorylase (Homo sapiens, UniProt P00491); test: Inhibition of human purine nucleoside phosphorylase by xanthine-oxidase coupled assay
T1 sequence (P00491 whole entry): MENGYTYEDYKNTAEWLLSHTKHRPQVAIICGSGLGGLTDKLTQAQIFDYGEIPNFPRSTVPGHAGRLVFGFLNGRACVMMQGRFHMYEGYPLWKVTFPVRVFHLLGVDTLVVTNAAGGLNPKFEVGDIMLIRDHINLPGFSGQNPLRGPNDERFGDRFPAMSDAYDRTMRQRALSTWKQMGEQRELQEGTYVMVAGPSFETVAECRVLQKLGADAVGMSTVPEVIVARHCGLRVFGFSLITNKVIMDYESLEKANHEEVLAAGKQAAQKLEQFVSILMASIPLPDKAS

[2] = biological target: T2, Purine nucleoside phosphorylase (Plasmodium falciparum, UniProt Q8T9Z7); test: Inhibition of Plasmodium falciparum purine nucleoside phosphorylase by xanthine-oxidase coupled assay
T2 sequence (Q8T9Z7 whole entry): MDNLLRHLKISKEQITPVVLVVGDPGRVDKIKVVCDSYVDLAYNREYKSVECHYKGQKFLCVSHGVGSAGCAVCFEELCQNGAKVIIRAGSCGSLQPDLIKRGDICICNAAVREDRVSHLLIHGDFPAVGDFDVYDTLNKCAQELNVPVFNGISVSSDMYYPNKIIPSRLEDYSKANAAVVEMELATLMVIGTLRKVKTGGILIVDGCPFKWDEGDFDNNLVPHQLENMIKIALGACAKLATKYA

[3] = biological target: T2, Purine nucleoside phosphorylase; test: Inhibition of Plasmodium falciparum purine nucleoside phosphorylase assessed as slow onset inhibition constant by xanthine-oxidase coupled assay
[4] = organism: Mus musculus; test: animal or person; details: Blood, po, read-out: INH
Description: Inhibition of purine nucleoside phosphorylase in mouse blood at 0.2 mg/kg, po administered as single dose

[5] = in vivo; details: mouse, ip, 14 nmol
Description: Half life in mouse at 14 nmol, ip administered as single dose

[6] = biological target: T1, Purine nucleoside phosphorylase; test: Inhibition of human purine nucleoside phosphorylase assessed as slow onset inhibition constant by xanthine-oxidase coupled assay
[7] = in vivo; details: mouse, po, 14 nmol
Description: Half life in mouse at 14 nmol, po administered as single dose

SMILES | pKi [1] | pKi [2] | pKi [3] | inhibition in vivo at 0.2 mg/kg [4] | half-life [5] | Ki* [6] | half-life [7]
O=c1[nH]cnc2c(CN3C[C@@H](CO)[C@H](O)C3)c[nH]c12 | 9.42 | 7.10 | 5.77 | – | – | – | –
O=c1[nH]cnc2c(CN3C[C@H](O)[C@@](F)(CO)C3)c[nH]c12 | 9.48 | 8.58 | 7.72 | 80% | < 0.25 h | 0.032 nM | 20 h
O=c1[nH]cnc2c(CN3C[C@@H](O)[C@](F)(CO)C3)c[nH]c12 | 7.74 | 6.59 | 5.68 | – | – | 1.82 nM | –
O=c1[nH]cnc2c(CN3C[C@H](O)[C@@](F)(CO)C3)c[nH]c12 (racemic) | – | 8.44 | 7.63 | – | – | – | –
